{
  "source": "patent US20180049996A1",
  "about": "“THERAPEUTIC AGENT FOR CHRONIC RESPIRATORY DISEASE AND COMPOSITION FOR INHIBITING CARDIAC FIBROSIS” (NIPPON HYPOX LABORATORIES INCORPORATED, priority 2015, published 2018)",
  "key": {"IgE": {"tested_on": "IgE", "test": "Total content of IgE in serum, ovalbumin asthma model", "type": "in vivo, BALB/c female mice", "conditions": "day 25, compared to OVA group", "experimental": "6 week old BALB/c female mice were purchased and the mice were divided into 5 groups with 5 animals per group shown in Table 3 below after habituation breeding of about 2 weeks.\nThe test was conducted on the schedule of sensitization, causing diseases and administration of test materials shown in FIG. 12. “IP” in FIG. 12 refers to ovalbumin sensitization treatment by the intraperitoneal administration of ovalbumin/aluminum hydroxide, and “IH” refers to inhalation exposure treatment of ovalbumin, and “PO” refers to the administration of the test materials. Specifically, 200 μL of PBS (pH 7.4) emulsified by the addition of 20 μg ovalbumin and 2 mg aluminum hydroxide as an adjuvant was intraperitoneally administered to all mice in 4 groups except the normal control group (the initial sensitization, day 1 of the test). Then, after 2 weeks (day 14 of the test), the second sensitization treatment was conducted in the same way as the initial sensitization. […]\nOn day 25 of the test, the total contents of IgE and contents of ovalbumin-specific IgE in serums were measured using blood collected from orbital sinuses of the mice. An ELISA kit for IgE measurement (a product from BioLegend, Inc.) was used for the measurement and the contents were measured at wavelength of 450 nm using a micro plate reader (a product from Bio-Rad Laboratories, Inc.)."}, "[1]": {"tested_on": "Myocardial Disorder Induced by Doxorubicin", "test": "Relative weights of the hearts, myocardial disorder induced by doxorubicin", "type": "in vivo, female SD rats", "conditions": "Test group 2: doxorubicin 13 mg/kg + HTHQ 50 mg/kg oral", "text": "Doxorubicin is used to produce disease-model animals of cardiomyopathy. […] The recombinant human erythropoietin (rHuEPO) is mainly used in the treatment of renal anemia etc., and has the effect to protect myocardium. The test group 3 is used to confirm the presence or absence of the inhibitory effect brought about by combining HTHQ and rHuEPO on myocardial disorder. […] Recombinant human erythropoietin was daily administered to the rats in test group 3 starting from 3 days before the administration of doxorubicin by intravenous injection. The number of animals in each group was 16. 8 animals of each group were sacrificed after collecting blood on day 7 and 14 after the administration of doxorubicin, and the autopsy of the hearts, the calculation of the relative weights of the hearts, the histopathologic examination of the hearts and the hematological examination were conducted. Myocardium is hypertrophied by fibrosing and the weight of the myocardium increases, and the relative weight of the heart tends to increase. […] Also, there was no significant difference between the other groups on day 7 and 14 after the administration (p<0.05)."}, "TNF-α": {"tested_on": "TNF-α", "test": "TNF-α level in BAL fluid (ELISA), COPD model", "type": "in vivo, C57BL/6N mice", "conditions": "HTHQ 10 and 20 mg/kg/day oral; tobacco smoke 10 days + LPS; compared to COPD model group", "experimental": "6 week old male SPF C57BL/6N mice, 20 to 25 g of body weight, were purchased from CORETEC INC. (South Korea).\nThe tests were conducted as follows. The mice in the COPD (chronic obstructive pulmonary disease) model group of the test groups were exposed to tobacco smoke for 1 hour per day (8 cigarettes/day) for 10 days and LPS (5 μg/50 μL/mouse) was intranasally administered to the mice on day 8 after the start of the tests. […]\nThe mice in the test groups were euthanized 72 hours after the LPS administration and the mice in the normal control group were euthanized on day 11 after the start of the tests by intraperitoneal injection of pentobarbital (Hanrimu pharmaceutical, South Korea) at 50 mg/kg and then the bronchi were excised. […] After preparing slide samples from 100 μL of BAL cell fluid using Cytospin (4° C., 1000 rpm×5 min), the cell numbers of inflammatory cells (neutrophil, macrophages) present in the BAL fluid were counted using a Diff-Quik stain kit.\nThe supernatant of the BAL fluid stored was taken out of the super-cryostat, and TNF-α and IL-6 levels were measured as the levels of pro-inflammatory cytokines in the supernatant. A quantitative ELISA kit (a product from Invitrogen) and an ELISA analyzer (a product from Molecular Devices, LLC.) were used for the measurement and the measurement wavelength was 450 nm."}},
  "note": "Marks after values point to notes of the source that are not given here.",
  "data": [
    {"smiles": "CCCCCCOc1cc(C)c(O)c(C)c1C", "note": "[HTHQ, 2,3,5-trimethylhydroquinone-1-hexyl ether]", "values": [
      {"measurement": "total amount of IgE in serum", "setting": "IgE; HTHQ 20 mg/kg/day oral (HTHQ20)", "result": "significant reduction"},
      {"measurement": "total amount of IgE in serum", "setting": "IgE; HTHQ 40 mg/kg/day oral (HTHQ40)", "result": "a declining trend"},
      {"measurement": "relative weight of the heart", "setting": "[1]; Day 7 after administration, p<0.05 vs Test group 1", "result": "0.4208 ± 0.0409^a %"},
      {"measurement": "relative weight of the heart", "setting": "[1]; Day 14 after administration", "result": "0.3658 ± 0.0357", "unit": "%"},
      {"measurement": "TNF-α level in BAL fluid", "setting": "TNF-α", "result": "effectively reduced"}
    ]}
  ]
}
